Two compounds from publication PMC4659708 (Nature, 2015) can be followed below.

In assay [1] the target is T1, α1 glycine receptor (GlyREM) (Danio rerio, UniProt O93430, DEL334-400/INS333AGT).
T1 sequence (O93430 with tags, fused parts or gaps INS333AGT/DEL334-400): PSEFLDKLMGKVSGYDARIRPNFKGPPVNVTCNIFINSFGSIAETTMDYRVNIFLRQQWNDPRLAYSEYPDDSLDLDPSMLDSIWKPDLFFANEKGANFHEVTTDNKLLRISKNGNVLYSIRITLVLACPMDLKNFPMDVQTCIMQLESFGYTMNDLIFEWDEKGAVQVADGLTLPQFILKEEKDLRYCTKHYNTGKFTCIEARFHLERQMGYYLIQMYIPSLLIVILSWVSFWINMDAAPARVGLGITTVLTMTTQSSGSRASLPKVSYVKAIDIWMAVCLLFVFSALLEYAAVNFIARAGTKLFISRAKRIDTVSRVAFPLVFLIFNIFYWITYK
As to the kind of experiment: TEVC in Xenopus oocytes, agonist activation. The format is cell-based.

For assay [2], the target named is T1, α1 glycine receptor (GlyREM). As to the kind of experiment: TEVC in Xenopus oocytes, block of glycine current at […]. The format is cell-based. Particulars: read-out: % inhibition at 1 mM.

As for `NCC(=O)O` [gly, glycine], a half-maximal response in assay [1] (EC50) required 260 µM. Consider `C=C(C)[C@@H]1[C@H]2OC(=O)[C@@H]1[C@]1(O)C[C@H]3O[C@]34C(=O)O[C@H]2[C@]14C` [ptx, picrotoxinin], for which the inhibition (usually the drop in the measured response relative to a control, in per cent) at 1000 µM in assay [2] is ~80%.
